The record followed here is patent US11180767B2, “Protease deficient filamentous fungal cells and methods of use thereof” (GLYKOS FINLAND OY, priority 2012, dated 2021).

The subject of data set [1] is proteases in supernatant from the 6-fold protease deletion strain M400. Kind of data set: Protease stability of proteins spiked into supernatant of the 6-fold protease deletion strain. In kind it is biochemical, Trichoderma reesei. As to conditions: M400 supernatant pH 4.2, 20 hours, 37°C, 0.05 μg/μl. Here is the method: The protease stability of the model proteins IGF1, hGH, and IFNα2b were analyzed by spiking them into supernatant from the 6-fold protease deletion strain (Δpep1Δtsp1Δslp1Δgap1Δgap2Δpep4) M400. The supernatant was collected from a large shake flask culture CAH15. The undiluted supernatant from the shake flask cultivation CAH15 was incubated with the purified model proteins with and without pepstatin A (50 μM) and SBTI (0.2 mg/ml) inhibitors for 20 hours at 37° C. The 5 day culture supernatant pH was around 4.2. The reaction containing 0.05 μg μl of model protein was sampled after 20 hours. 50 mM sodium citrate pH 4.0 spiked with model proteins (0.05 g 1) was used as a buffer control.
From each reaction 10 μl was loaded into an 18% SDS PAGE gel and run for 30 minutes at 200 V. The proteins in the gel were then transferred to nitrocellulose for immunoblotting. The nitrocellulose membrane was blocked for 1 hour at room temperature with 5% milk in TBST buffer. The individual blots were probed with their specific primary antibody to detect the appropriate model protein for 1 hour at room temperature on a shaker. The mouse anti-IGF1 antibody (R&D systems #mab291) was used at 2 μg/ml diluted in TBST. The mouse anti-rhGH antibody (Abeam #ab51232) was used at 2 μg/ml diluted in TBST. The mouse anti-IFNα2b antibody (Abeam #ab9386) was used at 1 μg/ml diluted in TBST. After briefly washing the blot membranes with TBST, the secondary antibody was added for 1 hour at room temperature shaking. The secondary goat anti-mouse AP conjugated antibody (Biorad #170-6520) was diluted 1:10,000 in TBST.
This same spiking experiment as was done with MAB01 to investigate its stability in the 6 protease deletion supernatant with and without inhibitors (FIG. 43). Samples were taken as described above and immunoblotted with an anti-heavy chain AP conjugated antibody (Sigma #A3188). […] There was no obvious benefit having used inhibitors. The antibody was stable in this pH 4.2 supernatant. […]

In a further data set the test system is serine proteases. The data set can be described thus: IgG degradation by aminobenzamidine purified serine protease fraction F4 with and without PMSF. The format is biochemical, Trichoderma reesei. The conditions noted are these: PMSF 5 mM; pH 5.5, 37°C, 20 hours. The procedure: Serine proteases comprise a major family of proteases that have been identified as antibody degrading enzymes. Accordingly, serine proteases were purified from Trichoderma supernatant. The serine proteases were first affinity purified from fermentation culture supernatants with a p-aminobenzamidine sepharose 4 fast flow resin (GE healthcare #17-5123-10). 15 ml of the fermentation culture supernatant was batch bound to the resin in 35 ml of binding buffer (0.05 M Tris-HCL, 0.5 M NaCl, pH 7.4). After packing and washing the column with the same binding buffer, the column was eluted with 0.05 M glycine, pH 3.0. The fractions were then neutralized with 1M Tris HCL, pH 8.8.
In total 1.7 mg of protein was purified from the affinity column. When the peak fractions were run on a 4-15% SDS-PAGE gel, several major bands (˜110 kD, 53 kD, 39 kD, 29 kD) and many more minor bands were seen. The peak fraction protein mixture (F4) was then tested for protease activity by incubated a sample of the F4 with human IgG1 in sodium citrate buffer (50 mM, pH 5.5) at 37° C. for 20 hours. The samples were incubated both in the presence and absence of the serine protease inhibitor PMSF (5 mM). The incubated samples were then analyzed by immunoblotting with an anti-IgG heavy chain AP conjugate antibody (Sigma #A3188) and an anti-IgG light chain AP conjugate antibody (Sigma #A3812) diluted 1:30,000 in TBST.

The test system of data set [2] is aspartic and glutamic protease. Kind of data set: MAB01 heavy chain degradation by SIP purified proteases with and without SIP inhibitor peptide. In kind it is biochemical, Trichoderma reesei. The conditions noted are these: overnight 37°C, pH 4.0 and pH 5.5. The procedure: Several additional aspartic proteases were isolated from the T. reesei M277 triple protease deletion strain (pep1, tsp1, slp1). […] The M277 deletion strain was generated as described in Example 4 below. The strain was grown in Trichoderma minimal medium supplemented with 20 g/l spent grain extract, 60 g/l lactose, and 9 g/l casamino acids at pH 5.5 and 28° C. The aspartic proteases were isolated by affinity purification using the SIP peptide (Ac-Phe-Lys-Phe-(AHPPA)-Leu-Arg-NH2) (Kataoka Y. et al. 2005 FEBS Letters 579, pp 2991-2994). The SIP peptide was conjugated to NHS activated agarose resin (Pierce #26196) using the protocol provided by the manufacturer. The SIP affinity resin was used to purify proteases. Fermentation supernatant (15 ml) from the T. reesei M277 strain was then used to batch bind proteases to the resin in 35 ml buffer containing 50 mM sodium acetate, 0.2 M NaCl, pH 3.0 (from fermentation conditions pH 5.5; 28° C.; 9 g/l casaminoacids; 20 g/L spent grain extract, 60 g/L lactose). The column was washed with the same binding buffer and bound protein removed with elution buffer (50 mM Tris-HCL, 1 M NaCl, pH 8.5). […]
The SIP purified proteases were then tested for their ability to degrade the MAB01 antibody heavy chain. […] The collected samples were analyzed by immunoblotting with an anti-IgG heavy chain antibody AP conjugate (Sigma A3188) diluted 1:30,000 in TBST. […]

Data set [3] has as its system SIP purified proteases (PEP2, PEP3, PEP4, PEP5, GAP1, SLP2). The data set can be described thus: Protease activity of SIP purified fractions against casein with inhibitors (EnzChek). The format is biochemical, Trichoderma reesei. The conditions noted are these: SIP, LIP, pepstatin A 60 μM; SBTI 200 μg/ml; pH 5.5. The procedure:
Protease activity was then tested against casein both in the presence and absence of protease inhibitors. Protease activity against casein was tested using the EnzChek protease assay kit (Molecular probes #E6638, green fluorescent casein substrate). The working stock solution was prepared by diluting the stock to 10 μg ml in 50 mM sodium citrate, pH 5.5. The purified protease fractions (10 μl) were diluted with […] of sodium citrate, pH 5.5. 100 μl of the diluted substrate was combined with the diluted protease fractions in a 96 well sample plate. The plate was then covered and kept at 37° C. for one to three hours. Fluorescence readings were taken at one, two, and three hours with a Varioskan fluorescent plate reader (Thermo Scientific) using 485 nm excitation and 530 nm emission.
The SIP inhibitor peptide, pepstatin A, LIP peptide, SBTI, and chymostatin were used as inhibitors. […] SIP, LIP, and pepstatin A were used at a concentration of 60 μM, and SBTI was used at a concentration of 200 μg/ml.

For data set [4], the system named is M369 human growth hormone strain. The data set can be described thus: hGH production in 24 well cultures with inhibitors and supplements. In kind it is cell-based, Trichoderma reesei. As to conditions: 24 well culture, pH 4.5, day 4 immunoblot. Here is the method:
To evaluate what inhibitors would best stabilize production of hGH, 24 well cultures of these strains were performed. The M369 human growth hormone strain (Δpep1Δtsp1Δslp1Δgap1Δgap2) was grown along with single components or with combinations of the following: trypsin and subtilisin inhibitor SBTI, the acidic protease inhibitor peptide SIP, the acidic protease inhibitor peptide LIP, the aspartic protease inhibitor pepstatin A free peptide, pepstatin A immobilized to agarose beads, the trypsin and subtilisin inhibitor BBI from lima bean, the […] chymostatin, and BSA. Three independent wells were chosen for control wells where no inhibitors or supplements were added. These two strains were grown in 3 ml of TrMM with diammonium citrate without ammonium sulfate, 100 mM PIPPS, 20 g/L spent grain extract, 40 g/L lactose adjusted to pH 4.5. The 24 well plates were shaken at 800 rpm, 85% humidity, and 28° C. The cultures were grown for 6 days and covered with an air permeable membrane.
Inhibitors were added first on day 1 and then daily beginning on day 3. 100 μl samples were taken from the culture wells beginning on day 3. The mycelium was spun down for 5 minutes at 13 k and the supernatant collected. From the culture supernatant 12 μl was loaded in a 4-20% SDS PAGE gel and immunoblotting made on nitrocellulose with mouse anti-hGH antibody (2 μg/ml) and goat anti-mouse IgG AP conjugated secondary antibody diluted 1:10,000 in TBST.
Estimating the expression levels relative to the 200 ng control sample, the control wells produced between 3-6 mg/L of hGH, the BSA (0.25%)/SIP (50 μM)/8BTI (0.2 mg/ml) treatment produced 24.5 mg/L, the SIP (50 μM)/8BTI (0.2 mg/ml) treatment produced 26.6 mg/L, and the pepstatin A beads/SBTI (0.2 mg/ml) addition yielded 24.5 mg/L of hGH. Therefore, using a combination of inhibitors and additives worked best increasing the production levels by at least 4-fold. The critical parameter was to include an aspartic protease inhibitor into the mix.

“IGF1: insulin-like growth factor 1, model protein”: in data set [1], the “stability of model protein in supernatant without inhibitors” value is “the majority appeared to be degraded”.
Consider `O=S(=O)(F)Cc1ccccc1` [PMSF], for which the “IgG degradation by F4 serine protease fraction” value in the data set with serine proteases was “able to inhibit most of the degradation”.
“Ac-Phe-Lys-Phe-(AHPPA)-Leu-Arg-NH2 (FKFXLR; HELM PEPTIDE1{[ac].F.K.F.[O=C(C[C@H](O)[C@H](Cc1ccccc1)N[*:1])[*:2]].L.R.[am]}$$$$V2.0; SMILES CC(=O)N[C@@H](Cc1ccccc1)C(=O)N[C@@H](CCCCN)C(=O)N[C@@H](Cc1ccccc1)C(=O)N[C@@H](Cc1ccccc1)[C@@H](O)CC(=O)N[C@@H](CC(C)C)C(=O)N[C@@H](CCCNC(=N)N)C(N)=O) [SIP peptide]”: the “aspartic and glutamic protease activities against MAB01 heavy chain” value in data set [2] was “inhibited”. Also, the proteases inhibited result in data set [3] is “inhibited both aspartic and glutamic proteases”. In data set [4], the “effect on hGH production” value is “noticeable increase in hGH amount”.
For “hGH: human growth hormone, model protein”, the “stability of model protein in supernatant without inhibitors” value in data set [1] is listed as “the majority appeared to be degraded”.
